According to patent publication US20260224549A1, “COMPOUNDS, COMPOSITIONS, AND METHODS FOR TREATING, AMELIORATING, AND/OR PREVENTING PAIN” (priority 2023, published 2026):
Several values for one entry are separate records, joined by “and”; a condition that tells them apart may be missing. Identical values can stand only once. Like-named read-outs stand apart in the source and are kept apart here.

How the values were obtained:
in vivo = conditions: dog, in vivo
From the text: (§1) The chosen dose can be higher, as long as within the pharmacological range.

dog = test: in vivo
From the text: as §1

rat = tested on: rat
From the text: as §1

[1] = Experimental: The screen was performed using solvent recrystallizations using different conditions, as well as non-competitive slurry experiments, to manipulate the solid-state form of the test material. Samples generated during the study were characterized using differential scanning calorimetry (DSC), thermogravimetric analysis (TGA), powder X-ray diffraction (XRD), and dynamic vapor sorption (DVS).
To perform the solvent-based portion of the polymorph screen, the test material was recrystallized using various solvents under approximately 78 different crystal growth conditions. The scale of the recrystallization experiments was approximately 1 to 20 mL. The method of changing the crystal growth conditions was by using single and binary arrays of solvent mixtures. The saturation temperature, growth temperature, and evaporation rate were also varied to create additional differences in crystal growth conditions.
Saturated solutions were prepared by agitating excess test material in contact with the various solvent systems at the saturation temperature. The mother liquor was separated from the residual solids by filtration if solids remained in the solution. The mother liquor was then heated above the saturation temperature to dissolve any remaining solids. The temperature of each solution was then adjusted to the growth temperature and a controlled nitrogen shear flow was introduced to begin solvent evaporation.
In addition to the solvent recrystallization experiments, non-competitive slurry experiments were performed to search for new solid-state forms. These experiments rely on solubility differences of different polymorphic form, if the compound exists in different polymorphic forms. As such, only polymorphs having a lower solubility (i.e., increased stability) than the original crystalline form can result from a non-competitive slurry experiment.
Essentially, when a solid is mixed with solvent to create slurry, a saturated solution is formed. The solution is saturated with respect to the polymorphic form dissolved.
The slurry experiments described herein were performed by exposing excess supplied material (i.e., Form A) to solvents and agitating the resulting suspensions for one week at ambient temperature. The solids were filtered and analyzed by XRD to determine the resulting form(s).
Solids generated from the solvent based recrystallization panels and otherwise provided samples were analyzed by powder XRD. To mitigate preferred grain effects, a two dimensional detection system was used to collect all the XRD screening data. The two dimensional detector integrates along the concentric Debye cones which helps reduce pattern variation. If bright spots appear in the conical rings, it indicates strong preferred grain effects that can lead to considerable variability in the observed diffraction patterns including changes in peak intensities.
The analysis entailed cluster analysis and multivariate statistics to group together any patterns that were determined to be statistically the same.
In the dendrogram, each pair of diffraction patterns is connected via a single node, which corresponds to a dissimilarity value (between 0 and 1) on the y-axis. The higher the connecting node is, the more dissimilar the two patterns are. A threshold dissimilarity value (~0.4 in this case) is used to group similar patterns into clusters, which should correspond to different solid state forms. The cluster plot is a 3D representation of the same analysis.

clinical = conditions: for AUC(0-t) / Cmax / Tmax: human
Experimental: The reference treatment i fasted condition for all comparisons.
Eight subjects in Cohort A3 participated in a 2-period treatment design in which they were assessed for the single-dose of drug substance in a Fasted condition and in a Fed condition. Subjects were to receive the same treatment (i.e., either drug substance or placebo) in both Period 1 and Period 2, and thus subjects would receive either two single doses of drug substance or two single doses of placebo during their participation in the study. Fasting state assessments occurred in Period 1 and Fed State assessments in Period 2. It was planned that an approximate 7-day washout would be needed between the Fast and Fed dosing periods. Note that PD assessments were not performed for the food effect Cohort A3.
Note that PD assessments were not performed for the Food Effect cohort.
For Part A Cohort A3, assessment of the food-effect was performed for the following PK parameters: • AUC0-last • Cmax • AUC0-inf

human μ-opioid receptor = conditions: G-protein signaling over β-arrestin signaling
From the text: Applying ^19F NMR, one can measure the quantity of G-protein signaling conformation, as well as that of β-arrestin signaling conformation, of the μ-opioid receptor as induced by an agonist.

μ-opioid receptor = μ-opioid receptor (Rattus norvegicus, UniProt P33535)
Sequence of μ-opioid receptor (P33535 whole entry): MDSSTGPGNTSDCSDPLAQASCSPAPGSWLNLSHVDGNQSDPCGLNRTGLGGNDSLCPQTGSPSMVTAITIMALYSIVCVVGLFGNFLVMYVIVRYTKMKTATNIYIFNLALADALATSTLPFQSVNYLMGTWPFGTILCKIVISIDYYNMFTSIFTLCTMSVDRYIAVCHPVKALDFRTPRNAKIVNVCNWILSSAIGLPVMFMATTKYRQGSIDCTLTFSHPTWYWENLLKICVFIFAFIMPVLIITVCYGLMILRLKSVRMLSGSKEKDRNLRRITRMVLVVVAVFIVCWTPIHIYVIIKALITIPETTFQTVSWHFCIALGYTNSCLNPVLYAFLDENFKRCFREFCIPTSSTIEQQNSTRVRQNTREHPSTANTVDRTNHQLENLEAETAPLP
Remark: listed apart in the source
rats = conditions: exposures far above the ED50 in rats
[2] = not given; remark: listed apart in the source
[3] = Panel: Anti-solvent addition, 15 experiments
[4] = Panel: Cooled to −20° C., single solvent, 12 experiments
[5] = Panel: Fast evaporation, binary solvent, 13 experiments
[6] = Panel: Fast evaporation, single solvent, 65° C., 14 experiments
[7] = Panel: Fast evaporation, single solvent, ambient, 24 experiments
[8] = Panel: Non-competitive slurries, 15 experiments
[9] = Total of all panels, 100 experiments
[10] = 120 mg DS (Fed), single oral dose, plasma, N = 6
[11] = 120 mg DS, Fed versus Fasted, n = 6

CN(C)C[C@H]1CN(CCc2ccsc2)CC[C@]1(O)c1cccc(C(N)=O)c1 [Compound I, 3-(3S, 4R)-3-((dimethylamino)methyl)-4-hydroxy-1-(2-(thiophen-3-yl)ethyl)piperidin-4-yl-benzamide]
NOAEL (in vivo): 60 mg/kg/day and 33.3 mg/kg | NOAEL HED for 50 kg subject (dog): 1665 mg | NOAEL HED for 50 kg subject (rat): 485 mg | No. of experiments giving Amorphous Form [1, 3]: 0 | No. of experiments giving Form A [1, 3]: 9 | No. of experiments with No solid recovered [1, 3]: 6 | No. of experiments giving Amorphous Form [1, 4]: 0 | No. of experiments giving Form A [1, 4]: 0 | No. of experiments with No solid recovered [1, 4]: 12 | No. of experiments giving Amorphous Form [1, 5]: 1 | No. of experiments giving Form A [1, 5]: 9 | No. of experiments with No solid recovered [1, 5]: 3 | No. of experiments giving Amorphous Form [1, 6]: 2 | No. of experiments giving Form A [1, 6]: 4 | No. of experiments with No solid recovered [1, 6]: 8 | No. of experiments giving Amorphous Form [1, 7]: 6 | No. of experiments giving Form A [1, 7]: 1 | No. of experiments with No solid recovered [1, 7]: 17 | No. of experiments giving Amorphous Form [1, 8]: 0 | No. of experiments giving Form A [1, 8]: 13 | No. of experiments with No solid recovered [1, 8]: 2 | No. of experiments giving Amorphous Form [1, 9]: 9 | No. of experiments giving Form A [1, 9]: 43 | No. of experiments with No solid recovered [1, 9]: 48 | % of Total experiments giving Amorphous Form ([1]; all panels, 100 experiments): 9% | % of Total experiments giving Form A ([1]; all panels, 100 experiments): 43% | % of Total experiments with No solid recovered ([1]; all panels, 100 experiments): 48% | GLSM ratio (90% CI) fed/fasted, AUC0-last (clinical; 120 mg): 0.801 (0.688, 0.933) | GLSM ratio (90% CI) fed/fasted, Cmax (clinical; 120 mg): 0.450 (0.238, 0.852) | reduction of AUC0-last by food (clinical; 120 mg): approximately 20% | reduction of peak concentrations by food (clinical; 120 mg): approximately 55% | Tlast (time of last measurable concentration), Median (clinical; [10]): 48.0 h | Tlast, Max (clinical; [10]): 48.0 h | Tlast, Min (clinical; [10]): 36.0 h | Tmax, Max (clinical; [10]): 6.02 h | Tmax, Min (clinical; [10]): 1.00 h | AUC0-last, Fed versus Fasted Ratio of GLSMs (clinical; [11]): 0.801 | Cmax, Fed versus Fasted Ratio of GLSMs (clinical; [11]): 0.450 | mean concentrations measurable through (clinical; 120 mg fed): 48 h | AUC(0-t) (clinical; plasma, oral, 120 mg, AUC0-last (zero to 24 hours postdose), GLSM, 120 mg DS (Fasted), n = 6): 202 ng·h/mL | AUC(0-t) (clinical; plasma, oral, 120 mg, AUC0-last (zero to 24 hours postdose), GLSM, 120 mg DS (Fed), n = 6): 162 ng·h/mL | Cmax (clinical; plasma, oral, 120 mg, GLSM (geometric least squares mean), 120 mg DS (Fasted), n = 6): 81.9 ng/mL | Cmax (clinical; plasma, oral, 120 mg, GLSM (geometric least squares mean), 120 mg DS (Fed), n = 6): 36.9 ng/mL | Tmax (clinical; plasma, oral, 120 mg, individual Tmax range, with food): 1 to 6 h | Tmax (clinical; plasma, oral, 120 mg, individual Tmax range, without food): 2 to 3 h | Tmax (clinical; plasma, oral, 120 mg, median Tmax, with food): 2.6 h | Tmax (clinical; plasma, oral, 120 mg, median Tmax, without food): 2.3 h | AUC(0-t) (clinical; plasma, po, 120 mg, AUC0-last (zero to 24 hours postdose), Mean, 120 mg DS (Fed), single oral dose, N = 6): 166 ng·h/mL | AUC(0-t) (clinical; plasma, po, 120 mg, AUC0-t (zero to the last quantifiable concentration), Mean, 120 mg DS (Fed), single oral dose, N = 6): 204 ng·h/mL | Cmax (clinical; plasma, po, 120 mg, Mean, 120 mg DS (Fed), single oral dose, N = 6): 45.2 ng/mL | Tmax (clinical; plasma, po, 120 mg, Tmax, Median, 120 mg DS (Fed), single oral dose, N = 6): 2.58 h | signaling pathway selectivity (human μ-opioid receptor): extremely cell-signaling-pathway-selective μ-opioid agonist | mediation of antinociceptive effect (μ-opioid receptor; in vivo): mediated exclusively by μ-opioid receptor | pain relief in preclinical models (μ-opioid receptor; preclinical models): comparable to Schedule 2 opiates | abuse liability (Conditioned Place Preference, Drug Self-Administration, Drug Discrimination): no abuse liability | Withdrawal symptoms (preclinical model): only minimal Withdrawal symptoms | respiratory depression or other opiate-based adverse effects (rats): no respiratory depression or other opiate-based adverse effects | opiate-associated effects ([2]; single dose 20-400 mg): no system opiate-associated effects noted | tolerability ([2]; single dose ranging from 20 mg up to 400 mg, healthy subjects): well-tolerated
